# Test results as given in PubChem BioAssay AID2060495 (Molecular Pharmacology Branch, DTP, NCI, 2025).
# Where “and” joins values, the source holds several entries; their conditions need not be identical. Identical values can stand only once.
# System: 521955-158-R2-J5-PDC complex spheroid viability
# Assay: Anticancer human tumor 521955-158-R2-J5-PDC patient-derived pancreatic carcinoma cell line growth inhibition [GQUAD]
# Settings: for viability, T/C: stronger effect = lower value
# Source text: DNA G-quadruplex Stabilizer Agents in Combinations in Complex Spheroids
# A high-throughput screen of multi-cell type tumor spheroids was designed to identify active combinations of DNA G-quadruplex stabilizer agents and targeted small molecules. Complex spheroids include a stromal component modeled by human endothelial cells (HUVEC) and fibroblasts modeled by human mesenchymal stem cells (MSCs). The concentration ranges selected for each drug and investigational agent were based upon clinically achievable concentrations if the clinical Cmax of the agent was known.
# Compounds. The drugs and investigational agents: pidnarulex (CX-5461; NSC782164), APTO-253 (NSC789042), BRACO-19 (NSC847499), peposertib (NSC802822), ceralasertib (NSC780249), elimusertib (NSC800525), camonsertib (NSC841442), AZD-1390 (NSC803789), olaparib (NSC753686), talazoparib (NSC767125), ART-558 (NSC835418), sotorasib (NSC818433), MRTX-1133 (NSC836407), SN-38 (NSC673596), topotecan (NSC609699), etoposide (NSC141540), doxorubicin (NSC123127), gemcitabine (NSC613327), 5-fluorouracil (NSC19893), paclitaxel (NSC125973), vemurafenib (NSC761431), panobinostat (NSC761190), R-306465 (JNJ-16241199; NSC773264), adavosertib (NSC754352), TP-3654 (NSC805149), carboplatin (NSC241240), KSQ-4279 (NSC840948), and staurosporine (NSC755774) were obtained from the National Cancer Institute (NCI) Developmental Therapeutics Program Chemical Repository (34). The FDA-approved anticancer drug set is available from the NCI Developmental Therapeutics Program. […] The stock solutions were prepared in dimethyl sulfoxide (DMSO, Sigma-Aldrich, St. Louis, MO, cat. D2650) at 800-fold the tested concentration and stored at -70 degrees C prior to their use. All drugs and investigational agents were tested over a range starting from a high concentration at or near the clinical Cmax and decreasing in half-log increments. If the clinical Cmax for an agent had not been determined, the highest concentration tested was 10 microM.
# 2.3 Cell Culture. All cells were maintained in an incubator at 37 degrees C and 5% CO2 with 95% humidity. The PDC lines were cultured according to standard operating procedures established by the NCI PDMR. All PDCs were thawed and cultured in Matrigel-coated flasks prepared with a working solution of 1X Ham's F-12 nutrient mix, without supplementation (Invitrogen, cat. 11765054), 100 U/mL penicillin-streptomycin (Invitrogen, cat. 15140122), and 2.5% Matrigel (Corning Inc., cat. 354248) for the first three passages. The 857933-349-R-J2-PDC line was cultured in 6C/Colon 1B media, which includes advanced DMEM/F-12 (Thermo Fisher Scientific, cat. 12634028), 10 mM HEPES (Thermo Fisher Scientific, cat. 15630080), 1X GlutaMAX supplement (Thermo Fisher Scientific, cat. 35050061), 0.1 mg/mL primocin (InvivoGen, cat. ant-pm-2), 10% defined fetal bovine serum, heat inactivated (HyClone Laboratories Inc., cat. SH30070.03HI), 50% L-WRN conditioned media (ATCC, cat. CRL-3276), 1.25 mM N-Acetyl-L-cysteine (Sigma-Aldrich, cat. A9165), 10 mM nicotinamide (Sigma-Aldrich, cat. N0636), 1X B-27 supplement (Thermo Fisher Scientific, cat. 17504044), 1X N-2 supplement (Thermo Fisher Scientific, cat. 17502048), 10 microM Y-27632 dihydrochloride (Tocris Bioscience, cat. 1254), and 50 ng/mL human EGF recombinant protein (Thermo Fisher Scientific, cat. PHG0311). The 485176-168-R4-J1-PDC line was cultured in Panc media, which includes all 6C/Colon 1B media components plus 100 ng/mL human FGF-10 (Thermo Fisher Scientific, cat. 100-26), 500 nM SB-431542 (Selleckchem, cat. S1067), and gastrin (Tocris, cat. 3006).
# […]
# [1] = compound alone, run of 04/16/2024
# 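Further: spheroids exposed to agents for one week before reading.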
# 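Wherever viability, T/C is given: 100% = DMSO vehicle control viability.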
SMILES,"viability, T/C (compound 0.0316 µM)","viability, T/C (compound 0.1 µM)","viability, T/C (compound 0.316 µM)","viability, T/C (compound 1 µM)","viability, T/C (compound 3.16 µM)","viability, T/C (compound 10 µM)",IC50 (curve of compound),IC50 [1],"IC50 (compound alone, run of 04/22/2024)","viability, T/C (compound 0.000999 µM)","viability, T/C (compound 0.00316 µM)","viability, T/C (compound 0.00999 µM)","viability, T/C (compound 0.0999 µM)"
COc1cc(C2c3cc4c(cc3C(OC3OC5COC(C)OC5C(O)C3O)C3COC(=O)C23)OCO4)cc(OC)c1O (centres undefined),95.5% and 105% and 91.1%,66.3% and 70.6% and 95%,79.4% and 67% and 81.2%,29% and 29.6% and 53.9%,14.7% and 15.7% and 30.7%,10.9% and 9.42% and 17.9%,0.616 µM and 0.427 µM and 1.25 µM,–,–,–,–,–,–
COc1ccc([C@@H](O)c2cc(-c3ncnc4cc(N5CCOCC5)ccc34)c(F)cc2Cl)nn1,88.1% and 109% and 104%,87% and 96.8% and 88.3%,83.3% and 97% and 86.6%,63.6% and 77.3% and 58.9%,50.2% and 64.8% and 50.8%,38% and 42.1% and 40.9%,2.81 µM and 6.67 µM and 2.89 µM,–,–,–,–,–,–
COc1cccc2c1C(=O)c1c(O)c3c(c(O)c1C2=O)CC(O)(C(=O)CO)CC3OC1CC(N)C(O)C(C)O1 (centres undefined),97.9% and 93.8% and 88.4%,57.4% and 74.5% and 45%,34.3% and 31.6% and 30.2%,13.4% and 43% and 12.5%,4.07% and 4.69% and 3.22%,1.01% and 2.64% and 0.42%,0.145 µM and 0.254 µM and 0.0967 µM,–,–,–,–,–,–
COc1ncnc(C2CC2)c1-c1ncc2cnn(Cc3ccc(-c4nc(C(F)(F)F)cn4C(C)C)cc3)c2n1,116% (2×) and 103%,88.7% and 102% and 106%,105% and 113% and 124%,85% and 107% and 113%,116% and 114% and 132%,124% and 108% and 134%,> 10 µM,–,–,–,–,–,–
Cc1[nH]c2ccc(F)cc2c1-c1nc2c3cccnc3c3ncccc3c2[nH]1,106% [middle of 12 runs],100% [middle of 12 runs],–,102% [middle of 12 runs],–,89.7% [middle of 12 runs],–,> 10 µM,> 10 µM,–,–,–,–
Cc1[nH]c2ccccc2c1CCNCc1ccc(/C=C/C(=O)NO)cc1,103% and 110% and 102%,–,20.8% and 22.1% and 11.1%,–,–,–,0.118 µM and 0.111 µM and 0.103 µM,–,–,110% and 125% and 100%,103% and 117% and 100%,139% and 135% and 112%,55.7% and 53.2% and 51%
Cc1cccc(N(C)C(=O)C2C(O)CCN2c2nc(C)cc(C(F)(F)F)c2C#N)c1 (centres undefined),120% and 113% and 96.8%,86.4% and 98.3% and 105%,90% and 104% and 107%,98.8% and 98.2% and 100%,120% and 115% and 123%,118% and 110% and 140%,> 10 µM,–,–,–,–,–,–
Cc1cnc(CNC(=O)c2c(=O)c3ccc(N4CCCN(C)CC4)nc3n3c2sc2ccccc23)cn1,79.7% [middle of 12 runs],–,38.2% [middle of 12 runs],22.1% [middle of 12 runs],20.7% [middle of 12 runs],18.8% [middle of 12 runs],–,137 nM [middle of 11 runs],–,–,–,–,–
Cn1ncnc1[C@H]1c2n[nH]c(=O)c3cc(F)cc(c23)N[C@@H]1c1ccc(F)cc1,78.9% and 94.1% and 78.3%,–,60.1% and 87.9% and 72.1%,–,–,–,> 0.316 µM,–,–,94.9% and 94.7% and 84.8%,81.5% and 95.2% and 80.6%,92.4% and 99.2% and 79.1%,86.8% and 89.5% and 85.8%
Nc1ccn(C2OC(CO)C(O)C2(F)F)c(=O)n1 (centres undefined),95.8% and 80% and 84.4%,86% and 65.7% and 69.4%,75.9% and 57.5% and 71%,17% and 46.2% and 22.6%,9.14% and 18.9% and 7.37%,8.29% and 13.5% and 6.71%,0.524 µM and 0.534 µM and 0.518 µM,–,–,–,–,–,–
O=C(NO)c1cnc(N2CCN(S(=O)(=O)c3ccc4ccccc4c3)CC2)nc1,120% and 129% and 128%,106% and 103% and 98.8%,97.3% and 66.4% and 48.3%,42.6% and 28.9% and 15%,0.27% and 0.42% and 0.06%,0.25% and 0.27% and 0.09%,0.838 µM and 0.501 µM and 0.307 µM,–,–,–,–,–,–
O=C(c1cc(Cc2n[nH]c(=O)c3ccccc23)ccc1F)N1CCN(C(=O)C2CC2)CC1,96.2% and 106% and 90.6%,93.6% and 88.4% and 70.8%,85.3% and 86.5% and 89.5%,65.6% and 88% and 66.8%,89.8% and 92.1% and 83.6%,91.2% and 81.6% and 80.2%,> 10 µM,–,–,–,–,–,–
O=c1[nH]cc(F)c(=O)[nH]1,86.1% and 107% and 116%,86% and 88.3% and 87.4%,89.2% and 109% and 92.6%,80% and 99% and 101%,47.1% and 45% and 102%,20.3% and 18.2% and 54.8%,2.85 µM and 2.84 µM and > 10 µM,–,–,–,–,–,–
